Reference: patent publication US9023813B2 (Nutek Pharma Ltd., priority 2012, dated 2015)
Values joined by “and” are separate entries in the source; they are usually repeats but may differ in a detail not shown here. Equal entries are not always repeated. “Also recorded” adds a separate entry of the source.

Legend:
male Sprague Dawley rats = assay: Clinical observations of rats during administration of propofol analogs in the pharmacokinetics study
Procedure: (§1) Blood samples were to be taken pre-dose, during dose and post dose at designated intervals, with the blood quickly processed and stored at −70° C. until analysis.
(§2) Formulations were prepared on the morning of the dosing day and each was passed through a 0.22 μm filter prior to being administered to animals. A standard dose of 0.168 mmol/Kg per analog was administered to each of the rats. […] Analog stability in the formulations was verified by preparing each formulation and harvesting 200 μL aliquots at 0, 1, 2 and 8 hr while standing at room temperature. After harvesting, each sample was immediately frozen in dry ice until analysis; concentrations of test compounds in the samples were examined by HPLC-UV.
(§3) The animals were surgically prepared with indwelling cannula, double cannulation in carotid artery and jugular vein for i.v. infusion. The anesthetic pentobarbital was used during the surgery, and the animals were allowed to recover 3-5 days after surgery before the formulation was dosed. The dose formulation was administered intravenously via the jugular vein cannula. The 16.8 μmol/mL formulation was administered i.v. at a rate of 1 mL/Kg/min for 10 min.

[1] = Pharmacokinetics: plasma concentrations of prodrug and propofol after intravenous infusion (LC/MS/MS); conditions: for Mean concentration of prodrug and propofol in rat plasma after intravenous infusion administration / AUCinf / MRTinf / AUClast / CLp / Vdss / Cmax / Tmax / t1/2: analyte = administered compound; for Mean Concentration of Propofol in Rat Plasma After Intravenous Administration: analyte = propofol released from the administered compound; for Pro-drug behaviour (release of propofol in vivo): rats, releasing the propofol in a matter of minutes after infusion; for AUCinf / MRTinf: extrapolated to infinity; for AUClast: to last detected concentration; for CLp: total body clearance, dose/AUCinf; for Vdss: volume of distribution; for Cmax / Tmax / t1/2: rat plasma, IV infusion
Procedure: as §1, §2, §3
Approximately 0.20 mL blood was collected at each designated time point from carotid artery via a catheter. A total of 12 plasma samples were taken from each animal: 1 pre-dose; 2 during the dose (5 into the 10 min infusion and one just prior termination of the 10 min infusion) and 9 post-infusion at 2, 5, 15, 30 min and 1, 2, 3, 4, and 6 hr post-dose. All blood samples were transferred into plastic microcentrifuge tubes containing 5 μL of K2-EDTA (0.5M) as anti-coagulant and placed on ice until processed for plasma. Blood samples were processed for plasma by centrifugation at approximately 5° C. Plasma samples were then stored in 1.5 mL tubes, quick frozen over dry ice and kept at −70±10° C. until LC/MSMS analysis.
For each, a minimum of 6 standard point curve runs in duplicates, and minimum of 5 standards were back calculated to within ±20% of their nominal concentrations. The LLOQ of each test article in plasma was established and 6 QC samples were included in assay runs of samples to ensure assay performance.
Data Analysis. Plasma concentration versus time data was analyzed by non-compartmental approaches using the WinNonlin software program (version 5.2, Pharsight, Mountain View, Calif.) and the pharmacokinetic parameters T½, CL, Vss, AUC(0-t), AUC(0-inf), MRT, and graphs of plasma concentration versus time calculated for each.

[2] = Solubility determination in D2O by 1H NMR with DSS internal standard; conditions: for solubility: D2O, water, thermodynamic from solid
Procedure: Thus the soapy-like solutions obtained were diluted until opalescent and diluted further until the opalescence visually disappeared.

[3] = time post-10 min i.v. infusion, 0.168 mmol/Kg
[4] = individual rats, post-10 min infusion, vehicle 10% Tween80

SMILES | Rats recovered at (male Sprague Dawley rats; [3]) | Mean concentration of prodrug and propofol in rat plasma after intravenous infusion administration ([1]; Time (h) 0) | Mean concentration of prodrug and propofol in rat plasma after intravenous infusion administration ([1]; Time (h) 0.083) | Mean concentration of prodrug and propofol in rat plasma after intravenous infusion administration ([1]; Time (h) 0.167) | Mean concentration of prodrug and propofol in rat plasma after intravenous infusion administration ([1]; Time (h) 0.2) | Mean concentration of prodrug and propofol in rat plasma after intravenous infusion administration ([1]; Time (h) 0.25) | Mean concentration of prodrug and propofol in rat plasma after intravenous infusion administration ([1]; Time (h) 0.417) | Mean concentration of prodrug and propofol in rat plasma after intravenous infusion administration ([1]; Time (h) 0.667) | Mean concentration of prodrug and propofol in rat plasma after intravenous infusion administration ([1]; Time (h) 1.166) | Mean concentration of prodrug and propofol in rat plasma after intravenous infusion administration ([1]; Time (h) 2.166) | Mean concentration of prodrug and propofol in rat plasma after intravenous infusion administration ([1]; Time (h) 3.166) | Mean concentration of prodrug and propofol in rat plasma after intravenous infusion administration ([1]; Time (h) 4.166) | Mean concentration of prodrug and propofol in rat plasma after intravenous infusion administration ([1]; Time (h) 6.166) | Mean Concentration of Propofol in Rat Plasma After Intravenous Administration ([1]; Time (h) 0) | Pro-drug behaviour (release of propofol in vivo) [1] | Relative solubility [2] | AUCinf [1] [µM·h] | MRTinf [1] [min] | AUClast [1] [µM·h] | CLp [1] [mL/min/kg] | further results
CC(C)c1cccc(C(C)C)c1OC(=O)OCCO[C@@H]1O[C@H](CO)[C@@H](O)[C@H](O)[C@H]1O [Compound 9] | recovered at about 30 min | BQL | BQL | BQL | BQL | BQL | BQL | BQL | BQL | BQL | BQL | BQL | BQL | BQL | very efficient pro-drugs | 8.6 |  |  |  |  | 
CC(C)c1cccc(C(C)C)c1OC(=O)OCCCO[C@@H]1O[C@H](CO)[C@@H](O)[C@H](O)[C@H]1O [Compound 12] | recovered at about 30 min | BQL | 0.00411 µM | 0.00678 µM | BQL | BQL | BQL | BQL | BQL | BQL | BQL | BQL | BQL | BQL | very efficient pro-drugs | 5.0 | 0.00122 | 6 | 0.000773 |  | Mean Concentration of Propofol in Rat Plasma After Intravenous Administration ([1]; Time (h) 4.166): BQL; Mean Concentration of Propofol in Rat Plasma After Intravenous Administration ([1]; Time (h) 6.166): BQL
CC(C)c1cccc(C(C)C)c1OC(=O)NCCO[C@@H]1O[C@H](CO)[C@@H](O)[C@H](O)[C@H]1O [Compound 17] |  | BQL | 178.796 µM | 312.678 µM | 152.206 µM | 119.535 µM | 35.206 µM | 19.837 µM | 8.012 µM | 2.083 µM | 0.3907 µM | 0.0825 µM | 0.0106 µM | BQL |  |  | 71.764 | 16.6 | 61.644 | 39.1 | Rat died at infusion of (male Sprague Dawley rats; Additional Rat 4, during infusion, vehicle 10% Tween80): infusion of 8 min.; Rat died at (male Sprague Dawley rats; Rat 3, post-10 min infusion, vehicle 10% Tween80): 1.5 h; Overall outcome in rats (male Sprague Dawley rats; in its vehicle (10% tween80 cosolvent)): poor results; Rat died at (male Sprague Dawley rats; [4]): died at 15 min. and 40 min; Rat recovered (from breathlessness) at (male Sprague Dawley rats; [4]): recovered at 10 min.; died at; Cause of death (male Sprague Dawley rats; individual rats, vehicle 10% Tween80): blood hemolysis; also recorded: hematuria; Vdss [1]: 0.657 L/kg; Mean Concentration of Propofol in Rat Plasma After Intravenous Administration ([1]; Time (h) 2.166): BQL; Mean Concentration of Propofol in Rat Plasma After Intravenous Administration ([1]; Time (h) 3.166): BQL; Mean Concentration of Propofol in Rat Plasma After Intravenous Administration ([1]; Time (h) 4.166): BQL; Mean Concentration of Propofol in Rat Plasma After Intravenous Administration ([1]; Time (h) 6.166): BQL; Water solubility (qualitative) ([2]; reason for cosolvent): poor
CC(C)c1cccc(C(C)C)c1OC(=O)OCCO[C@@H]1O[C@H](CO)[C@@H](OC2O[C@H](CO)[C@@H](O)[C@H](O)[C@H]2O)[C@H](O)[C@H]1O (stereo partly drawn) [Compound 24] | recovered at about 30 min | BQL | 3.2 µM | 7.74 µM | 1.029 µM | 0.751 µM | 0.036 µM | 0.0112 µM | 0.00301 µM | BQL | 0.0042 µM | BQL | BQL | BQL | very efficient pro-drugs | >20 | 0.791 | 12.4 | 0.786 | 5804 | Cmax [1]: 8.1 µM; Tmax [1]: 8.4 min; t1/2 [1]: 53.2 min; Vdss [1]: 120 L/kg; solubility [2]: > 20 mM
CC(C)c1cccc(C(C)C)c1OC(=O)OCCCO[C@@H]1O[C@H](CO)[C@@H](OC2O[C@H](CO)[C@@H](O)[C@H](O)[C@H]2O)[C@H](O)[C@H]1O (stereo partly drawn) [Compound 25] | recovered at about 35 min | BQL | 34.401 µM | 68.36 µM | 22.658 µM | 9.074 µM | 0.997 µM | 0.0971 µM | 0.0162 µM | 0.00209 µM | BQL | BQL | BQL | BQL | very efficient pro-drugs | >20 | 8.574 | 4.62 | 8.571 | 337 | Rats soporous at (male Sprague Dawley rats; [3]): Rats soporous at about 7 min and; Cmax [1]: 68.4 µM; Tmax [1]: 10.2 min; t1/2 [1]: 15.2 min; Vdss [1]: 1.51 L/kg; solubility [2]: > 20 mM
